This passage reports Ki results from BindingDB's records for doi:10.1080/14756360109162375 (University of North Carolina, 2001).

By Ki is commonly meant a measure of affinity in units of concentration, obtained from inhibition or displacement.

The target of this experiment is T1, N(4)-(beta-N-acetylglucosaminyl)-L-asparaginase (Homo sapiens, UniProt P20933).
T1 sequence (P20933 whole entry): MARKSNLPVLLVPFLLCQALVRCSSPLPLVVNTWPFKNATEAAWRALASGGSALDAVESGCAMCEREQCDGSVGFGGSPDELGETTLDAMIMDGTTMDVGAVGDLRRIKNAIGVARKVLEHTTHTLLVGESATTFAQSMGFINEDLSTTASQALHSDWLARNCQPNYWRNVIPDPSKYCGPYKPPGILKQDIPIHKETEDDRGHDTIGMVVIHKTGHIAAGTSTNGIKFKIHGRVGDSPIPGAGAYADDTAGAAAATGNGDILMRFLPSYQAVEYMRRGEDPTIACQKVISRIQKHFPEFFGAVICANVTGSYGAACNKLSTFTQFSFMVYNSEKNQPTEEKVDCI
Put plainly: Inhibition Assay. The note with it: pH 5.8; 37 °C. The procedure:
Glycosylasparaginase activity was measured in citrate-phosphate buffer at pH 5.8 at 37 C. N-Acetyl-D-glucosamine released during the reaction was measured using the Morgan-Elson assay.
Regarding `CC(CC(=O)O)C(=O)O` [D,L-2-Methylsuccinic acid, 5], the Ki was 700 µM.

The compound `O=C(O)CCC(=O)O` [Succinic acid, 6] gave a Ki of 5000 µM.

`N[C@H](CP(=O)(O)O)C(=O)O` [CAS_23052-80-4] had a Ki of 900 µM. This Ki lies about 5.6-fold lower than the previous one.

On to `CC(=O)NC1C(NC(=O)CCl)OC(CO)C(O)C1O` (stereo not given) [GlcNAc-Asn analogue, 11], for which the Ki came out at 640 µM.

Take `O=C(O)CC(Br)C(=O)O` [L-2-bromosuccinic acid, 4]: the Ki came out at 2700 µM.

As to `CC(=O)NC1C(NC(=O)CBr)OC(CO)C(O)C1O` (stereo not given) [GlcNAc-Asn analogue, 12], the Ki amounted to 560 µM.

For `N[C@@H](CC(=O)O)C(=O)O` [L-Aspartic acid, 2], the affinity, expressed as Ki, was 600 µM.

For the compound `CC(=O)NC1C(NC(=O)CN)OC(CO)C(O)C1O` (stereo not given) [GlcNAc-Asn analogue, 10], the inhibition constant Ki came to 750 µM. This Ki and that of the compound before are within 1.5-fold of each other.

Turning to `O=C(O)CC(Cl)C(=O)O` [L-2-Chlorosuccinic acid, 3], the inhibition constant (Ki) was determined as 7700 µM. Against the preceding compound, the Ki is about 10-fold higher.

The compound `N[C@H](CS(=O)(=O)O)C(=O)O` [L-cysteic acid] registered a Ki of 1400 µM.
